# Measurements from patent US9464064B2, “HCV helicase inhibitors and methods of use thereof” (University of Kansas, priority 2011, dated 2016).
# Key:
# [1] = Plasma stability, mouse; assay type: in vitro ADME; conditions: percent remaining at 3 hours
# Experimental: Stability of compounds in human plasma (BioChemed Services) and mouse plasma (BioChemed Services) were determined. All liquid was dispensed and transfer steps were performed with the FREEDOM EVO automated liquid handler (Tecan US). Plasma was allowed to thaw at room temperature prior to preparing the assay solution of plasma:1×PBS (1:1). The assay solution was warmed up at 37° C. prior of adding the compound. Immediately after compounds were added, time 0 minute aliquots were promptly collected and mixed with cold acetonitrile (spiked with an internal standard). The remainder of the reaction volume was incubated at 37° C. with shaking. Additional aliquots were collected 180 minutes after the start of the reaction and promptly quenched with cold acetonitrile (spiked with an internal standard). Samples were centrifuged at 3000 rpm for 10 minutes. The amount of compound in the supernatant was determined by LC/MS/MS (Applied Biosystems, Sciex API4000 Q-TRAP) and the percent of parent compound remaining after 180 minutes was calculated by the following formula: % parent compound remaining=[(concentration at 180 minutes/concentration at 0 minutes)×100]. Results reported are the mean of each reaction duplicate, normalized to the internal standard, and expressed as a percent of compound remaining after the incubation time. […]
# [2] = molecular target: scNS4A-NS3 (Hepatitis C virus genotype 1b, UniProt Q9WMX2); assay: NS3 protease assay (ENZOLYTE 520), full-length; assay type: biochemical, hepatitis C virus genotype 1b(con1); parameters: other: 100 μM, highest concentration tested; other: versus P4; There is also a His tag
# Experimental: All oligonucleotides were purchased from Integrated DNA Technologies (IDT, Coralville, Iowa). Primuline derivatives were synthesized and purified as described herein. Three different NS3 proteins were used in this study. Two were truncated C-terminally His-tagged NS3 proteins lacking the N-terminal protease, called NS3h, the third was a full-length NS3 with the portion of NS4A needed for protease activation fused to its N-terminus, called scNS4A-NS3 (Howe, et al. (1999) Protein Sci. 8:1332-41), and the fourth was a 23 kDa scNS4A-NS3 protease fragment lacking the helicase domains, called scNS4A-NS3p (Protein One, Rockville, Md.). NS3h was expressed from two different HCV strains. NS3h_1b(con1) was from the con1 strain of genotype 1b (GENBANK accession AB114136), and NS3h_2a(JFH1) was from the JFH1 strain of HCV genotype 2a (GENBANK accession AJ238799). […] His-tagged recombinant NS3h_1b(con1), NS3h_2a(JFH1), and scNS4A-NS3 (also from genotype 1b(con1)) were expressed, and purified as previously described (Frick, et al. (2010) supra; Lam, et al. (2003) J. Virol. 77:3950-3961). […]
# All NS3 protease assays were carried out using the 5-Carboxyfluorescein-labeled substrate from the AnaSpec. […] Assays were carried out in a total volume of 20 μl in black 384-well plates with fluorescence at 520 nm measured using a BMG FLUOstar Omega fluorescence spectrophotometer. […]
# [3] = Parallel Artificial Membrane Permeability Assay (PAMPA); assay type: in vitro ADME; conditions: acceptor pH 7.4
# Experimental: Permeability was assessed using the Parallel Artificial Membrane Permeability Assay (PAMPA) in a 96-well format. All liquid dispensed and transfer steps were performed with the FREEDOM EVO automated liquid handler (Tecan US). Measurements were performed in an aqueous buffer solution (PRISMA HT, pION Inc.) at pH 5.0, 6.2, and 7.4, in duplicate. A “sandwich” plate (pION Inc.) composed of a donor bottom plate and an acceptor filter plate was used. The donor wells contained the compounds in 180 μl system solution, and magnetic stir bars. The filter on the bottom of each acceptor well was coated with GIT-0 lipid (pION Inc.) and filled with 200 μl of Acceptor Sink Buffer, pH 7.4 (pION Inc.) containing a surfactant to mimic the function of serum proteins. The permeation time was 30 minutes and moderate stirring (equivalent to 40 μm Aqueous Boundary Layer thickness) was applied using the GUT-BOX (pION, Inc.). After the permeation time, the sandwich was disassembled and the amount of compound present in both the donor and acceptor wells was measured by UV absorbance (250-498 nm) using the Infinite M200 (Tecan US) and compared to spectra obtained from reference standards. Mass balance was used to determine the amount of material embedded in the membrane filter. The effective permeability, Pe, was calculated using the software PAMPA Evolution Plus, version 3.2 (pION Inc). Verapamil HCl (considered highly permeable), Metoprolol (considered moderately permeable), and Ranitidine (considered poorly permeable) were used as reference standards. Permeation time was 30 minutes. Final DMSO concentration was 0.5% and standards and test compounds were assayed at 100 μM.
# [4] = molecular target: T1, NS3h_1b(con1) (Hepatitis C virus genotype 1b, UniProt Q9WMX2); assay: ATP hydrolysis assay (malachite green); assay type: biochemical
# T1 construct: truncated C-terminally His-tagged NS3 proteins lacking the N-terminal protease, called NS3h; His-tag (C); made in house
# Experimental: A modified “malachite green” assay (Lanzetta, et al. (1979) Anal. Biochem. 100:95-97) was used to measure ATP hydrolysis. Fifty μL reactions contained 25 mM MOPS pH 6.5, 5 mM MgCl2, 2 mM ATP, 5 μg/mL BSA, 0.01% (v/v) TWEEN 20, 0.05 mM DTT, and poly(U) RNA (Saint Louis, Mo.) as indicated. Reactions were initiated by adding NS3h_1b(con1). Reactions were incubated for 15 minutes at 37° C. then stopped by mixing 40 μL of the reaction into 200 μL of the malachite green reagent (3 volumes 0.045% (w/v) malachite green, 1 volume 4.2% ammonium molybdate in 4N HCl, 0.05 volume of 20% TWEEN 20). […] Absorbance at 630 nm was proportional to the concentration of phosphate produced; free phosphate produced was measured against a standard curve.
# T1 sequence (Q9WMX2 1192-1657): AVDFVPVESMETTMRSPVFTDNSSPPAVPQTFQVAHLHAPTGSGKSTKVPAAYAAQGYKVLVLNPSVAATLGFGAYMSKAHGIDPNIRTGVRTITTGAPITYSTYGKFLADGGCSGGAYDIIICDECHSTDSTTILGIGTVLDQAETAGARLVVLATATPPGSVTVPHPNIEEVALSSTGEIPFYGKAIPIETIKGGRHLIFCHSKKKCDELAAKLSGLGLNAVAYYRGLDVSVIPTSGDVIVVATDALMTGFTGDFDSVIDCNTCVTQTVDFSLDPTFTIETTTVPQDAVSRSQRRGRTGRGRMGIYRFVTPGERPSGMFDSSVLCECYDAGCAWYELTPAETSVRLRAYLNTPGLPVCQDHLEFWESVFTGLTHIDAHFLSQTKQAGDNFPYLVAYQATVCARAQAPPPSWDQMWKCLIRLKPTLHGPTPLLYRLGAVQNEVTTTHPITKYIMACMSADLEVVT
# Sequence of scNS4A-NS3 (Q9WMX2 1027-1657): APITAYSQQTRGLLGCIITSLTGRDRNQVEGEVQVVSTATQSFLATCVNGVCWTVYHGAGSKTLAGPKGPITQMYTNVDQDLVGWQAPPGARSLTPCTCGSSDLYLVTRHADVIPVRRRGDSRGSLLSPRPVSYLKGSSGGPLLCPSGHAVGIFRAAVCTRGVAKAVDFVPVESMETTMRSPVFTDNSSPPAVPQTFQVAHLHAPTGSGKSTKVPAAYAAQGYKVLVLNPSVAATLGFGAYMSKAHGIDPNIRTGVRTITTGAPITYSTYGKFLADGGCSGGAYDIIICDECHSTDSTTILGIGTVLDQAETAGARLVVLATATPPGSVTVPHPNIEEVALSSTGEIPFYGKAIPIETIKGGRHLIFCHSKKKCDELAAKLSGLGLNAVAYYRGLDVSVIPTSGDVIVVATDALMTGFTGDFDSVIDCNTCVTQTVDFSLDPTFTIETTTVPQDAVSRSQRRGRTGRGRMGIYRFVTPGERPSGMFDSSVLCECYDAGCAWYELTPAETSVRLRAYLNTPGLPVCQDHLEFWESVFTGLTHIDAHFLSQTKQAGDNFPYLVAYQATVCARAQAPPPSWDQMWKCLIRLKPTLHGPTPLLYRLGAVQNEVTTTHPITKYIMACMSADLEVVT
smiles,measurement,setting,value
"Cc1ccc2nc(-c3ccc4nc(-c5ccc(NC(=O)c6cccc(Cl)c6)cc5)sc4c3)sc2c1S(=O)(=O)O [Compound 17, 2′-(4-(3-chlorobenzamido)phenyl)-6-methyl-[2,6′-bibenzo[d]thiazole]-7-sulfonic acid]",Plasma Stability Mouse,[1],95.0%
same,times less potent protease inhibitor than compound P4,[2]; versus P4,50 times
same,"Papp at 30 min, 100 μM","[3]; PAMPA, donor pH 6.2, read-out: PAMPA Pe",0.22 ×10⁻⁶ cm/s
same,PAMPA Pe,[3]; donor pH 5.0,0 (5.0) ×10^−6 cm/s
same,PAMPA Pe,[3]; donor pH 7.4,0 (7.4) ×10^−6 cm/s
"Cc1ccc2nc(-c3ccc4nc(-c5ccc(N)cc5)sc4c3)sc2c1S(=O)(=O)O [Compound P2a, 2′-(4-aminophenyl)-6-methyl-[2,6′-bibenzo[d]thiazole]-7-sulfonic acid]",inhibition at 100 µM,[2]; read-out: inhibition of protease,≤ 50%
"Cc1ccc2nc(-c3ccc4nc(-c5ccc6nc(-c7ccc(N)cc7)sc6c5)sc4c3)sc2c1S(=O)(=O)O [Compound P3, 2″-(4-aminophenyl)-6-methyl-[2,6′:2′,6″-terbenzo[d]thiazole]-7-sulfonic acid]",IC50,[4],15 ± 4 µM
"Cc1ccc2nc(-c3ccc4nc(-c5ccc6nc(-c7ccc8nc(-c9ccc(N)cc9)sc8c7)sc6c5)sc4c3)sc2c1S(=O)(=O)O [Compound P4, 2′″-(4-aminophenyl)-6-methyl-[2,6′:2″,6′″-quaterbenzo[d]thiazole]-7-sulfonic acid]",IC50,[4],5 ± 3 µM
same,effect on NS3 ATP hydrolysis,[4]; presence and absence of RNA,inhibited ATP hydrolysis both in the presence and absence of RNA
